Measurements taken from US20030152597A1, “Use of at least one sapogenin for prevening the skin or ageing symptoms” (priority 2000, published 2003).

Tested on: collagenase produced by Clostridium Histolyticum
Assay: Inhibition of collagenase activity (DQ-gelatin fluorescence)
Format: biochemical
Settings: decrease in collagenase activity relative to the control
Method: The effect of an extract of wild yam on the inhibition of the activity of collagenase produced by Clostridium Histolyticum was evaluated. Although different from a human enzyme, this collagenase is used on account of its ability to digest human collagen. […]
The control consisted of collagenase without test product. Thus, the activity of the control constitutes 100% collagenase activity and thus 0% inhibition of the said activity.
The products were preincubated with the enzyme for 10 minutes at room temperature, and DQ-gelatin was then added and the fluorescence obtained on degradation of the substrate was recorded for 10 minutes (excitation 480 nm; emission 538 nm) on a SpectraMax spectrofluorimetre (Molecular Devices); the results were processed using Soft Max Pro software.
The percentages indicated represent the decrease in collagenase activity relative to the control.

c1cnc2c(c1)ccc1cccnc12 [Phenanthroline, phenanthroline]
% inhibition (n = 4) (0.1 mM in ethanol): 96%
% inhibition (n = 4) (0.25 mM in ethanol): 40%
% inhibition (n = 4) (0.5 mM in ethanol): 65%
